Results published in US9326513B2, “Fungicidal compositions” (Syngenta Participations AG, priority 2011, dated 2016).
Like-named read-outs stand apart in the source and are kept apart here.

Experiments:
Format in all cases: cell-based
Septoria tritici = Septoria tritici (leaf blotch), PDB microtiter plate, visual after 72 hrs; conditions: single compound
[1] = tested on: Monographella nivalis (syn. Microdochium nivale, Fusarium nivale); assay: Monographella nivalis (snow mould, foot rot of cereals), PDB microtiter plate, visual after 72 hrs; conditions: for inhibition at 0.03125 ppm: rate 0.03125 ppm; for inhibition at 0.15625 ppm: rate 0.15625 ppm; for inhibition at 0.3125 ppm: rate 0.3125 ppm
Botrytis cinerea = Botrytis cinerea (gray mould), PDB microtiter plate, visual after 72 hrs; conditions: for inhibition at 0.625 ppm: rate 0.625 ppm; for inhibition at 1.25 ppm: rate 1.25 ppm; for inhibition at 2.5 ppm: rate 2.5 ppm; for inhibition at 5 ppm: rate 5 ppm
[2] = tested on: Mycosphaerella arachidis (y. Cercospora arachidicola); assay: Mycosphaerella arachidis (brown leaf spot of groundnut), PDB microtiter plate, visual after 5-6 days; conditions: single compound
[3] = Monographella nivalis, applied alone, 0.0625 ppm
[4] = Monographella nivalis, applied alone, 0.125 ppm
[5] = Monographella nivalis, applied alone, 0.25 ppm
[6] = Monographella nivalis, applied alone, 0.5 ppm
[7] = Monographella nivalis, applied alone
[8] = Monographella nivalis, applied alone, rate 0.0625 ppm
[9] = Monographella nivalis, applied alone, rate 0.125 ppm
[10] = Monographella nivalis, applied alone, rate 0.25 ppm
[11] = Botrytis cinerea, alone, rate 0.125 ppm
[12] = Botrytis cinerea, alone, rate 0.25 ppm
[13] = Botrytis cinerea, alone, rate 0.5 ppm
[14] = Botrytis cinerea, alone, rate 2 ppm
[15] = Monographella nivalis, applied alone, 2.5 ppm
[16] = Monographella nivalis, applied alone, 5 ppm
[17] = Monographella nivalis, applied alone, rate 0.625 ppm
[18] = Monographella nivalis, applied alone, rate 1.25 ppm
[19] = Botrytis cinerea, alone, read-out: Activity (%)
[20] = Botrytis cinerea, single compound, read-out: Activity (%)

CCCC1COC(Cn2cncn2)(c2ccc(Cl)cc2Cl)O1 (stereo not shown) [Propiconazole]
inhibition at 0.125 ppm (Septoria tritici; Zymoseptoria tritici, 0.125 ppm): 50%
inhibition at 0.0625 ppm [1, 3]: 0%
inhibition at 0.125 ppm [1, 4]: 0%
inhibition at 0.25 ppm [1, 5]: 0%
inhibition at 0.5 ppm [1, 6]: 0%
inhibition at 1 ppm ([1]; Monographella nivalis, applied alone, 1 ppm): 20%
inhibition at 0.015625 ppm ([1]; Monographella nivalis, applied alone, rate 0.015625 ppm): 0%
inhibition at 0.03125 ppm [1, 7]: 0%
inhibition at 0.0625 ppm [1, 8]: 0%
inhibition at 0.125 ppm [1, 9]: 0%
inhibition at 0.25 ppm [1, 10]: 0%
inhibition at 0.0625 ppm (Botrytis cinerea; Botrytis cinerea, alone, rate 0.0625 ppm, read-out: Activity (%)): 0%
inhibition at 0.125 ppm (Botrytis cinerea; [11]): 0%
inhibition at 0.25 ppm (Botrytis cinerea; [12]): 0%
inhibition at 0.5 ppm (Botrytis cinerea; [13]): 50%
inhibition at 0.25 ppm (Botrytis cinerea; Botrytis cinerea, single compound, rate 0.25 ppm): 0%
inhibition at 0.5 ppm (Botrytis cinerea; Botrytis cinerea, single compound, rate 0.5 ppm): 50%

COC(=O)N(OC)c1ccccc1COc1ccn(-c2ccc(Cl)cc2)n1 [Pyraclostrobin]
inhibition at 0.0015625 ppm ([1]; Monographella nivalis, applied alone, rate 0.0015625 ppm): 0%
inhibition at 0.003125 ppm ([1]; Monographella nivalis, applied alone, rate 0.003125 ppm): 0%
inhibition at 0.00625 ppm ([1]; Monographella nivalis, single compound, rate 0.00625 ppm): 0%
inhibition at 0.0125 ppm ([1]; Monographella nivalis, single compound, rate 0.0125 ppm): 50%
inhibition at 0.025 ppm (Botrytis cinerea; Botrytis cinerea, alone, rate 0.025 ppm): 0%
inhibition at 0.05 ppm (Botrytis cinerea; Botrytis cinerea, alone, rate 0.05 ppm): 0%
inhibition at 0.1 ppm (Botrytis cinerea; Botrytis cinerea, alone, rate 0.1 ppm): 0%
inhibition at 0.2 ppm (Botrytis cinerea; Botrytis cinerea, alone, rate 0.2 ppm): 20%
inhibition at 0.25 ppm (Botrytis cinerea; [12]): 50%
inhibition at 2 ppm (Botrytis cinerea; [14]): 70%

CO/C=C(/C(=O)OC)c1ccccc1COc1cccc(C(F)(F)F)n1 [Picoxystrobin]
Activity (%) (Septoria tritici; 0.015625 ppm): 70%
Activity (%) (Septoria tritici; 0.03125 ppm): 90%
Activity (%) (Botrytis cinerea; alone, rate 0.25 ppm): 50%
Activity (%) (Botrytis cinerea; alone, rate 0.5 ppm): 50%
Activity (%) (Botrytis cinerea; alone, rate 1 ppm): 50%
Activity (%) (Botrytis cinerea; alone, rate 2 ppm): 50%

Cc1nn(C)c(F)c1C(=O)Nc1ccccc1C(C)CC(C)C (stereo not shown) [Penflufen]
Activity (%) (Septoria tritici; 0.125 ppm): 0%
Activity (%) (Septoria tritici; 0.25 ppm): 20%
Activity (%) (Septoria tritici; 0.5 ppm): 70%
Activity (%) ([1]; applied alone, 0.5 ppm): 0%
Activity (%) ([1]; applied alone, 1 ppm): 20%
Activity (%) ([1]; applied alone, rate 0.5 ppm): 0%
Activity (%) ([1]; applied alone, rate 1 ppm): 20%

CO/C=C(/C(=O)OC)c1ccccc1Oc1cc(Oc2ccccc2C#N)ncn1 [Azoxystrobin]
Activity (%) ([1]; applied alone, 0.00625 ppm): 50%
Activity (%) ([1]; applied alone, rate 0.0015625 ppm): 0%
Activity (%) ([1]; applied alone, rate 0.003125 ppm): 20%
Activity (%) ([1]; applied alone, rate 0.00625 ppm): 70%
Activity (%) (Botrytis cinerea; alone, rate 0.025 ppm): 0%
Activity (%) (Botrytis cinerea; alone, rate 0.05 ppm): 0%
Activity (%) (Botrytis cinerea; alone, rate 0.1 ppm): 0%
Activity (%) (Botrytis cinerea; alone, rate 0.125 ppm): 0%
Activity (%) (Botrytis cinerea; alone, rate 0.2 ppm): 20%
Activity (%) (Botrytis cinerea; alone, rate 0.25 ppm): 20%

Cn1cc(C(=O)Nc2ccc(F)cc2-c2ccc(Cl)c(Cl)c2)c(C(F)F)n1 [Bixafen]
Activity (%) ([1]; applied alone, 0.25 ppm): 20%
Activity (%) ([2]; 0.03125 ppm): 50%
Activity (%) ([2]; 0.0625 ppm): 70%

CC(C)(C)[C@@H](O)[C@@H](Cc1ccc(Cl)cc1)n1cncn1 (racemic) [Paclobutrazol]
inhibition at 0.15625 ppm (Septoria tritici; Zymoseptoria tritici, 0.15625 ppm): 0%
inhibition at 0.3125 ppm (Septoria tritici; Zymoseptoria tritici, 0.3125 ppm): 20%
inhibition at 0.625 ppm (Septoria tritici; Zymoseptoria tritici, 0.625 ppm): 0%
inhibition at 1.25 ppm (Septoria tritici; Zymoseptoria tritici, 1.25 ppm): 0%
inhibition at 5 ppm (Septoria tritici; Zymoseptoria tritici, 5 ppm): 70%
inhibition at 10 ppm (Septoria tritici; Zymoseptoria tritici, 10 ppm): 70%
Activity (%) (Septoria tritici; 5 ppm): 50%
inhibition at 0.625 ppm ([1]; Monographella nivalis, applied alone, 0.625 ppm): 0%
inhibition at 1.25 ppm ([1]; Monographella nivalis, applied alone, 1.25 ppm): 0%
inhibition at 2.5 ppm [1, 15]: 0%
inhibition at 5 ppm [1, 16]: 0%
inhibition at 10 ppm ([1]; Monographella nivalis, applied alone, 10 ppm): 0%
inhibition at 0.15625 ppm [1, 7]: 0%
inhibition at 0.3125 ppm [1, 7]: 0%
inhibition at 0.625 ppm [1, 17]: 0%
inhibition at 1.25 ppm [1, 18]: 0%
inhibition at 0.625 ppm (Botrytis cinerea; Botrytis cinerea, alone): 0%
inhibition at 1.25 ppm (Botrytis cinerea; Botrytis cinerea, alone): 0%
inhibition at 2.5 ppm (Botrytis cinerea; [19]): 0%
inhibition at 1.25 ppm (Botrytis cinerea; Botrytis cinerea, single compound): 0%
inhibition at 2.5 ppm (Botrytis cinerea; [20]): 0%
inhibition at 5 ppm (Botrytis cinerea; [20]): 70%

OC(Cn1cncn1)(c1ccc(F)cc1)c1ccccc1F (stereo not shown) [Flutriafol]
inhibition at 0.5 ppm (Septoria tritici; Zymoseptoria tritici, 0.5 ppm): 0%
inhibition at 1 ppm (Septoria tritici; Zymoseptoria tritici, 1 ppm): 0%
inhibition at 0.0625 ppm [1, 3]: 0%
inhibition at 0.125 ppm [1, 4]: 0%
inhibition at 0.25 ppm [1, 5]: 0%
inhibition at 0.5 ppm [1, 6]: 0%
inhibition at 0.03125 ppm [1, 7]: 0%
inhibition at 0.0625 ppm [1, 8]: 0%
inhibition at 0.125 ppm [1, 9]: 0%
inhibition at 0.25 ppm [1, 10]: 0%
inhibition at 0.5 ppm ([1]; Monographella nivalis, applied alone, rate 0.5 ppm): 0%
inhibition at 1 ppm ([1]; Monographella nivalis, applied alone, rate 1 ppm): 0%
inhibition at 2 ppm ([1]; Monographella nivalis, applied alone, rate 2 ppm): 0%
inhibition at 0.125 ppm (Botrytis cinerea; [11]): 0%
inhibition at 0.25 ppm (Botrytis cinerea; [12]): 0%
inhibition at 0.5 ppm (Botrytis cinerea; [13]): 0%
inhibition at 1 ppm (Botrytis cinerea; Botrytis cinerea, alone, rate 1 ppm): 0%
inhibition at 2 ppm (Botrytis cinerea; [14]): 0%

CS(=O)(=O)c1ccc(C(=O)C2C(=O)CCCC2=O)c([N+](=O)[O-])c1 [Mesotrione]
inhibition at 2.5 ppm [1, 15]: 0%
inhibition at 5 ppm [1, 16]: 0%
inhibition at 0.078125 ppm ([1]; Monographella nivalis, applied alone, rate 0.078125 ppm): 0%
inhibition at 0.15625 ppm [1, 7]: 0%
inhibition at 0.3125 ppm [1, 7]: 0%
inhibition at 0.625 ppm [1, 17]: 0%
inhibition at 1.25 ppm [1, 18]: 0%
inhibition at 2.5 ppm ([1]; Monographella nivalis, applied alone, rate 2.5 ppm): 0%
inhibition at 10 ppm ([1]; Monographella nivalis, single compound, rate 10 ppm): 0%
inhibition at 20 ppm ([1]; Monographella nivalis, single compound, rate 20 ppm): 0%
inhibition at 5 ppm ([1]; Monographella nivalis, single compound, rate 5 ppm): 0%
inhibition at 0.625 ppm (Botrytis cinerea; Botrytis cinerea, alone): 0%
inhibition at 1.25 ppm (Botrytis cinerea; Botrytis cinerea, alone): 0%
inhibition at 2.5 ppm (Botrytis cinerea; [19]): 0%
inhibition at 5 ppm (Botrytis cinerea; [19]): 0%
inhibition at 10 ppm (Botrytis cinerea; Botrytis cinerea, alone, rate 10 ppm, read-out: Activity (%)): 0%
